Source: US4312866A, “Use of rifamycin SV and its related salts in the treatment of rheumatoid arthritis, and related formulations suited for the purpose” (priority 1979, dated 1982)
“Also recorded” adds a separate entry of the source. Where a name gives a salt, the structure may show the parent alone. Blank lines part the entries; values can stand above or below the compound they belong to.

Key:
[1] = in vivo
Method: (§1) The rifamycin levels, present in the biological fluids of treated patients, were assayed by high pressure liquid chromatography (HPLC), a method more reliable and reproducible than the ultraviolet or microbiological method.
(§2) The synovial fluid samples were directly injected into the chromatograph after precipitation of the proteins with acetonitrile on the other hand, the serum samples had to be previously extracted with ethyl acetate at an acid pH.
(§3) A Hewlett Packard chromatograph is used, model 104 B, fitted with a fixed wave length detector (254 nm); RP 18 (10 mc) column, 25-cm length, […].
(§4) The following eluent is used: (A) an 80:20 mixture of 0.01 M phosphate buffer at pH 7 and acetonitrile; (B) acetonitrile. The gradient shifts from the 10 percent of B to the 70 percent of B within 15 minutes; the flow is 1.6 ml/minute.
(§5) The temperature of the oven is 35° C.; that of the eluent A is 60 percent and the one of the eluent B 40 percent.
(§6) Rifamycin SV and its oxidized form, ie rifamycin S, are used as standard.
(§7) The two absorption lines are made up injecting 5 mcl, 10 mcl and 15 mcl of said solutions into the chromatograph.
The previous solutions are ten-fold diluted in the case of sera standard lines; the above mentioned operations are thereafter repeated.
Determination of Rifamycin in the Serum […]
(§8) The data are expressed as mcg/ml.

clinical = settings: in vivo
Method: as §1, §2, §3, §4, §5, §6
In order to establish the standard lines in the synovial fluid, 500 mg of each single compound are dissolved in one liter exactly of a 1:1 water-methanol mixture.
as §7
Determination of rifamycin SV in the synovial fluid
This determination is directly carried out on the deproteinized synovial fluid. 200 mcl of sample are introduced into a centrifuge test tube, and added with 2 ml of acetonitrile.
The resulting solution is stirred, and allowed to decant; 20 mcl of supernatant fluid are thereafter injected into the chromatograph. The samples are analyzed immediately in order to prevent the oxidation of rifamycin SV into rifamycin S.
as §8

[2] = Comparison of synovial fluid rifamycin levels, sodium salt vs arginine salt (Table 2); assay type: in vivo, patients; settings: equivalent to 500 mg rifamycin SV; for concentration at 5 min / concentration at 1 h / concentration at 2 h / concentration at 4 h / concentration at 8 h: human, synovial fluid, mean of eight determinations
[3] = Rifamycin levels in monoarthritic guinea-pig after intra-articular administration; assay type: in vivo; settings: monoarthritic guinea-pig (gamma-globulin arthritis)
Excerpt: The observation that in the monoarthritic guinea-pig (gamma-globulin arthritis) rifamycin arginine salt levels, 10 times higher than in the case of rifamycin sodium salt, can be observed following an intra-articular administration of either rifamycin sodium salt or arginine salt, proves in full agreement with the above mentioned datum.

Solubility of the salts = assay type: physicochemical
[4] = pH of aqueous solutions of the salts; assay type: physicochemical
rabbit's spinal sac = assay: Local tolerability after injection into the rabbit's spinal sac; assay type: in vivo; settings: 60-mg injection once daily for three consecutive days, versus commercial solutions of rifamycin SV
[5] = tested on: joint sites other than the knee (wrist, hand's metacarpophalangeal and interphalangeal joints, tibiotarsal joints, etc); assay: Infiltrations into joint sites other than the knee; assay type: in vivo, patients; settings: approximately 300 joints
Excerpt: (§9) Two of the 75 patients had to stop the treatment because of the above mentioned untoward side effect.

[6] = tested on: persistent effusions in one or both knees
Method: In a second clinical experimental course, 75 patients, presenting with persistent effusions in one or both knees were given 500 mg of rifamycin SV (in the form of a L-arginine salt) every seven days, still by intra-articular injection.

[7] = Stability of solutions and lyophilyzed salts; assay type: physicochemical; settings: dry state
rheumatoid synovitis = assay: Clinical trials (open and double-blind) in rheumatoid synovitis; assay type: in vivo, patients
Method: The effects of intra-articular injections of rifamycin SV solutions in rheumatoid synovitis were assessed in two clinical trials, one carried out according to an open technique and the other one according to a double-blind experimental design. A total of 35 patients was treated, with an intra-articular injection of 200-500 mg weekly, for a maximum of 10 weeks. The patients were followed up for three years. The following laboratory diagnostic tests were made weekly on the synovial fluids: white blood cell differential count, RA test, Waaler-Rose test, latex test, immunoglobulins, T and B lymphocytes, C3 and C4 levels, glucose, acid phosphatase.
Bioptic examinations were carried out both before and after various months (1-18) after the start of the treatment.

[8] = tested on: cultures of synovial membrane fragments; assay: Inhibiting activity on cultures of synovial membrane fragments; assay type: cell-based; settings: needle biopsy, patients with suspected rheumatoid arthritis
Excerpt: as §9

rheumatoid arthritis = assay: Intra-articular injections in rheumatoid arthritis (general statement); assay type: in vivo; settings: rheumatoid arthritis patients
[9] = synovial fluid, end of the treatment

rifamycin species present in the serum [1]: serum also contains rifamycin S
SMILES: COC1C=COC2(C)Oc3c(C)c(O)c4c(c3C2=O)C(=O)C=C(NC(=O)C(C)=CC=CC(C)C(O)C(C)C(O)C(C)C(OC(C)=O)C1C)C4=O (centres unmarked) [rifamycin S]

SMILES: COC1C=COC2(C)Oc3c(C)c(O)c4c(O)c(cc(O)c4c3C2=O)NC(=O)C(C)=CC=CC(C)C(O)C(C)C(O)C(C)C(OC(C)=O)C1C [L-arginine salt of rifamycin SV, rifamycin SV salt with arginine]
concentration at 0.25 h (clinical; human): 4930 ± 550 µg/mL | synovial fluid levels compared with sodium salt ([2]; intra-articular): marked superiority | concentration at 5 min [2]: 7160 ± 2100 µg/mL | concentration at 1 h [2]: 3850 ± 800 µg/mL | concentration at 2 h [2]: 1730 ± 1000 µg/mL | concentration at 4 h [2]: 750 ± 300 µg/mL | concentration at 8 h [2]: 173 ± 100 µg/mL | rifamycin arginine salt levels vs rifamycin sodium salt [3]: 10 times higher | solubility in acetone (Solubility of the salts; listed as arginine salt): highly soluble | solubility in chloroform (Solubility of the salts; chloroform): sparingly soluble | solubility in ethyl acetate (Solubility of the salts; listed as arginine salt): sparingly soluble | solubility in methanol (Solubility of the salts; listed as arginine salt): highly soluble | solubility in water (Solubility of the salts; listed as arginine salt): highly soluble | solubility in water (Solubility of the salts; listed as arginine salt of rifamycin SV): optimal water solubility properties | pH of 10 percent aqueous solution ([4]; 10 percent aqueous solution): 6.7 | local tolerability (rabbit's spinal sac): optimal and definitely better than that observed in the case of commercial solutions | analgesic and anti-inflammatory activity [5]: potent analgesic and anti-inflammatory activity | joint function [5]: overall improvement of joint function | morning stiffness [5]: marked reduction, and quite often in a complete subsidence | patients with complete subsidence of effusions and marked clinical improvement ([6]; 500 mg rifamycin SV every seven days intra-articular, of 75 patients): seventy-two | patients with effusional relapse ([6]; 1-6 months after the start of the treatment): 3 patients | patients not responding to 12 infiltrations ([6]; 12 infiltrations): one | synovial fluid leukocytes ([6]; P<0.001): significant decrease | C3 and C4 complemental fractions in synovial fluid ([6]; P<0.005): increase | relation of number of infiltrations with activity of the local synovitis ([6]; P<0.05): strictly related | patients requiring 1-3 infiltrations to induce effusion subsidence ([6]; out of 72): 12 patients | patients requiring 4-6 infiltrations to induce effusion subsidence ([6]; out of 72): 33 patients | patients requiring 7-12 infiltrations to induce effusion subsidence ([6]; out of 72): 27 patients

concentration at 5 min [2]: 6700 ± 200 µg/mL | concentration at 1 h [2]: 1530 ± 490 µg/mL | concentration at 2 h [2]: 485 ± 180 µg/mL | concentration at 4 h [2]: 439 ± 180 µg/mL | concentration at 8 h [2]: 140 ± 67 µg/mL | solubility in water (Solubility of the salts): scarcely soluble in water
SMILES: CO[C@H]1/C=C/O[C@@]2(C)Oc3c(C)c(O)c4c(O)c(cc(O)c4c3C2=O)NC(=O)/C(C)=C\C=C\[C@H](C)[C@H](O)[C@@H](C)[C@@H](O)[C@@H](C)[C@H](OC(C)=O)[C@@H]1C [rifamycin SV sodium salt, reference compound]
preservation of lyophilyzed salt [7]: can be preserved for years at room temperature

SMILES: COC1C=COC2(C)Oc3c(C)c(O)c4c(O)c(cc(O)c4c3C2=O)NC(=O)C(C)=CC=CC(C)C(O)C(C)C(O)C(C)C(OC(C)=O)C1C (centres unmarked) [histidine salt, rifamycin SV salt with histidine]
solubility in acetone (Solubility of the salts): good | solubility in benzene (Solubility of the salts; benzene): practically nil | solubility in ethanol (Solubility of the salts; ethanol): good | solubility in ether (Solubility of the salts; ether): practically nil | solubility in ethyl acetate (Solubility of the salts): practically nil | solubility in isopropanol (Solubility of the salts; isopropanol): practically nil | solubility in methanol (Solubility of the salts): high | solubility in water (Solubility of the salts): high | pH of 20 percent aqueous solutions ([4]; 20 percent aqueous solutions): 6.4-6.7

SMILES: COC1C=COC2(C)Oc3c(C)c(O)c4c(O)c(cc(O)c4c3C2=O)NC(=O)C(C)=CC=CC(C)C(O)C(C)C(O)C(C)C(OC(C)=O)C1C (centres unmarked) [rifamycin SV]
diffusion of rifamycin SV injected into the joint (clinical): scarce diffusion | rifamycin species present in the synovial fluid (clinical): Only rifamycin SV is present in the synovial fluid | patients with reappearance of exudate (rheumatoid synovitis; 35 patients, followed up for three years): two | disappearance of exudate (rheumatoid synovitis; 200-500 mg weekly intra-articular, maximum 10 weeks): completely disappeared after the third and within the tenth instillation | histological variations of the knees (rheumatoid synovitis; biopsies before and 1-18 months after start of treatment): reduction of synovial cell infiltrates; also recorded: increase of newly-formed connective tissue; also recorded: surrounding areas with a residual hyperplastic synovia; also recorded: depositions of a new partially organized fibrin | immunological parameters (rheumatoid synovitis; end of the treatment): No variations | RA cells (rheumatoid synovitis; [9]): significant drop | polymorphocyte percentage (rheumatoid synovitis; [9]): significant drop | total leukocytes (rheumatoid synovitis; [9]): significant drop | inhibiting activity on cultures of synovial membrane fragments [8]: inhibiting activity of rifamycin SV was demonstrated | resolution of the pathologic condition (rheumatoid arthritis): rapid resolution of the pathologic condition as well as to the patient's complete cure | initial local pain ([6]; human, in vivo): majority of the patients | patients who had to stop the treatment because of side effect ([6]; human, in vivo): Two | patients with local retarded painful reaction ([6]; human, in vivo): 28 patients
